Measured values as given in the NIST ThermoML archive (doi:10.1021/je901020a).
Numbers after ± are expanded uncertainties.

Columns and labels:
[1] = xn = mol fraction of the nth substance listed; settings: 101 kPa, Liquid; for speed of sound: Pulse-echo method
[2] = refractive index (Na D-line) (dimensionless); xn = mol fraction of the nth substance listed; settings: 101 kPa, Liquid, Standard Abbe refractometry

CC1CCCCC1 [methylcyclohexane] + Cc1ccccc1C
Settings	mass density, [1] [kg/m3]	refractive index, [2]	speed of sound, [1] [m/s]
298.15 K, x1 = 0.0558	868.7 ± 0.5	1.49758 ± 0.0007	1340 ± 2
298.15 K, x1 = 0.0973	863.5 ± 0.5	1.49375 ± 0.0007	1333 ± 2
298.15 K, x1 = 0.1875	852.9 ± 0.5	1.48587 ± 0.0007	1318 ± 2
298.15 K, x1 = 0.2979	839.7 ± 0.5	1.47605 ± 0.0007	1300 ± 2
298.15 K, x1 = 0.4084	827 ± 0.5	1.46659 ± 0.00071	1283 ± 2
298.15 K, x1 = 0.4965	817.1 ± 0.5	1.45929 ± 0.00071	1271 ± 2
298.15 K, x1 = 0.5946	806.3 ± 0.6	1.45128 ± 0.00071	1259 ± 2
298.15 K, x1 = 0.6948	795.5 ± 0.6	1.44332 ± 0.0007	1246 ± 2
298.15 K, x1 = 0.7944	785.2 ± 0.6	1.43568 ± 0.00063	1235 ± 2
298.15 K, x1 = 0.8912	775.6 ± 0.6	1.42852 ± 0.0007	1225 ± 2
298.15 K, x1 = 0.9497	769.9 ± 0.6	1.42429 ± 0.0007	1219 ± 2
298.15 K, x1 = 1	765 ± 0.6	1.42062 ± 0.00064	1215 ± 2
313.15 K, x1 = 0.049	856.8 ± 0.5	1.49036 ± 0.00064	1281 ± 2
313.15 K, x1 = 0.0983	850.8 ± 0.5	1.48589 ± 0.00064	1272 ± 2
313.15 K, x1 = 0.1972	838.9 ± 0.5	1.47705 ± 0.00066	1255 ± 2
313.15 K, x1 = 0.2832	828.7 ± 0.5	1.46962 ± 0.00069	1241 ± 2
313.15 K, x1 = 0.403	814.8 ± 0.6	1.45951 ± 0.00072	1222 ± 2
313.15 K, x1 = 0.5001	803.8 ± 0.6	1.4514 ± 0.00077	1208 ± 2
313.15 K, x1 = 0.598	793 ± 0.6	1.44349 ± 0.00083	1195 ± 2
313.15 K, x1 = 0.6977	782.3 ± 0.6	1.43558 ± 0.0009	1182 ± 2
313.15 K, x1 = 0.7947	772.2 ± 0.6	1.4281 ± 0.00062	1171 ± 2
313.15 K, x1 = 0.9013	761.5 ± 0.6	1.42003 ± 0.001	1160 ± 2
313.15 K, x1 = 0.9474	756.9 ± 0.6	1.4165 ± 0.0011	1154 ± 2
313.15 K, x1 = 1	751.9 ± 0.6	1.41274 ± 0.00064	1150 ± 2

Cc1cc(C)cc(C)c1 [1,3,5-trimethylbenzene] + CC1CCCCC1
Settings	mass density, [1] [kg/m3]	refractive index, [2]	speed of sound, [1] [m/s]
298.15 K, x2 = 0	861.1 ± 0.5	1.49693 ± 0.001	1336 ± 2
298.15 K, x2 = 0.0463	856.7 ± 0.5	1.49346 ± 0.0011	1330 ± 2
298.15 K, x2 = 0.0962	851.9 ± 0.5	1.48973 ± 0.0011	1323 ± 2
298.15 K, x2 = 0.197	842.2 ± 0.5	1.48211 ± 0.0011	1310 ± 2
298.15 K, x2 = 0.2868	833.5 ± 0.5	1.47524 ± 0.0011	1298 ± 2
298.15 K, x2 = 0.3963	822.8 ± 0.5	1.46685 ± 0.0011	1283 ± 2
298.15 K, x2 = 0.4972	813 ± 0.6	1.45909 ± 0.0011	1271 ± 2
298.15 K, x2 = 0.5956	803.4 ± 0.6	1.45153 ± 0.0011	1259 ± 2
298.15 K, x2 = 0.6974	793.6 ± 0.6	1.44373 ± 0.0011	1247 ± 2
298.15 K, x2 = 0.7932	784.3 ± 0.6	1.43635 ± 0.0011	1236 ± 2
298.15 K, x2 = 0.8942	774.8 ± 0.6	1.42859 ± 0.0011	1226 ± 2
298.15 K, x2 = 0.9497	769.6 ± 0.6	1.42444 ± 0.0011	1220 ± 2
313.15 K, x2 = 0	848.8 ± 0.5	1.48923 ± 0.001	1277 ± 2
313.15 K, x2 = 0.0524	843.8 ± 0.5	1.48547 ± 0.001	1269 ± 2
313.15 K, x2 = 0.1075	838.5 ± 0.5	1.48144 ± 0.001	1262 ± 2
313.15 K, x2 = 0.2051	829.1 ± 0.5	1.47418 ± 0.001	1248 ± 2
313.15 K, x2 = 0.314	818.5 ± 0.5	1.466 ± 0.001	1233 ± 2
313.15 K, x2 = 0.4067	809.5 ± 0.6	1.45892 ± 0.00098	1221 ± 2
313.15 K, x2 = 0.5093	799.5 ± 0.6	1.45103 ± 0.00098	1207 ± 2
313.15 K, x2 = 0.6083	789.8 ± 0.6	1.44335 ± 0.00096	1195 ± 2
313.15 K, x2 = 0.7071	780.1 ± 0.6	1.43558 ± 0.00096	1183 ± 2
313.15 K, x2 = 0.8106	770.1 ± 0.6	1.42752 ± 0.00097	1171 ± 2
313.15 K, x2 = 0.9093	760.4 ± 0.6	1.41983 ± 0.00096	1159 ± 2
313.15 K, x2 = 0.9596	755.7 ± 0.6	1.41588 ± 0.00096	1154 ± 2

C1CCCCC1 [cyclohexane] + Cc1cccc(C)c1
x1 = 1
Settings	mass density, [1] [kg/m3]	refractive index, [2]	speed of sound, [1] [m/s]
298.15 K	773.9 ± 0.5	1.4236 ± 0.00064	1255 ± 2
313.15 K	759.59 ± 0.5	1.41516 ± 0.00064	1182 ± 2

Cc1ccc(C)cc1 [1,4-dimethylbenzene] + C1CCCCCCC1
x2 = 0
Settings	mass density, [1] [kg/m3]	refractive index, [2]	speed of sound, [1] [m/s]
298.15 K	856.6 ± 0.5	1.49312 ± 0.00069	1310 ± 2
313.15 K	843.5 ± 0.5	1.48444 ± 0.00069	1248 ± 2

C1CCCCC1 [cyclohexane] + Cc1ccc(C)cc1
x1 = 1
Settings	mass density, [1] [kg/m3]	refractive index, [2]	speed of sound, [1] [m/s]
298.15 K	773.9 ± 0.5	1.4236 ± 0.00064	1255 ± 2
313.15 K	759.6 ± 0.5	1.41516 ± 0.00064	1182 ± 2

Cc1ccc(C)cc1 [1,4-dimethylbenzene] + C1CCCCC1
Settings	mass density, [1] [kg/m3]	refractive index, [2]	speed of sound, [1] [m/s]
298.15 K, x2 = 0	856.6 ± 0.5	1.49312 ± 0.00069	1310 ± 2
298.15 K, x2 = 0.0459	852.9 ± 0.5	1.49003 ± 0.0007	1306 ± 2
298.15 K, x2 = 0.0952	848.6 ± 0.5	1.4866 ± 0.0007	1301 ± 2
298.15 K, x2 = 0.1948	840.1 ± 0.5	1.47959 ± 0.0007	1292 ± 2
298.15 K, x2 = 0.2874	832.3 ± 0.5	1.47324 ± 0.00069	1284 ± 2
298.15 K, x2 = 0.3929	823 ± 0.5	1.4656 ± 0.00069	1275 ± 2
298.15 K, x2 = 0.4964	814.1 ± 0.5	1.45843 ± 0.00069	1269 ± 2
298.15 K, x2 = 0.5938	805.7 ± 0.5	1.45142 ± 0.00068	1263 ± 2
298.15 K, x2 = 0.6949	797.2 ± 0.5	1.44417 ± 0.00068	1258 ± 2
298.15 K, x2 = 0.7906	789.5 ± 0.5	1.43762 ± 0.00068	1254 ± 2
298.15 K, x2 = 0.8927	781.5 ± 0.5	1.43057 ± 0.00068	1253 ± 2
298.15 K, x2 = 0.9493	777.5 ± 0.5	1.42692 ± 0.00068	1253 ± 2
313.15 K, x2 = 0	843.5 ± 0.5	1.48444 ± 0.00069	1248 ± 2
313.15 K, x2 = 0.0494	839.4 ± 0.5	1.48145 ± 0.00068	1243 ± 2
313.15 K, x2 = 0.1056	834.5 ± 0.5	1.47781 ± 0.00066	1238 ± 2
313.15 K, x2 = 0.2078	825.8 ± 0.5	1.47072 ± 0.00064	1228 ± 2
313.15 K, x2 = 0.3149	816.5 ± 0.5	1.46341 ± 0.00063	1218 ± 2
313.15 K, x2 = 0.4156	807.5 ± 0.5	1.45628 ± 0.0006	1209 ± 2
313.15 K, x2 = 0.5115	799.2 ± 0.5	1.44953 ± 0.0006	1202 ± 2
313.15 K, x2 = 0.6083	790.9 ± 0.5	1.44272 ± 0.00062	1195 ± 2
313.15 K, x2 = 0.7079	782.5 ± 0.5	1.43584 ± 0.00067	1189 ± 2
313.15 K, x2 = 0.8167	773.7 ± 0.5	1.42845 ± 0.00061	1184 ± 2
313.15 K, x2 = 0.9109	766.2 ± 0.5	1.42167 ± 0.00049	1182 ± 2
313.15 K, x2 = 0.9601	762.5 ± 0.5	1.41809 ± 0.00045	1181 ± 2

Cc1cc(C)cc(C)c1 [1,3,5-trimethylbenzene] + C1CCCCC1
Settings	mass density, [1] [kg/m3]	refractive index, [2]	speed of sound, [1] [m/s]
298.15 K, x2 = 0	861.1 ± 0.5	1.49693 ± 0.00063	1336 ± 2
298.15 K, x2 = 0.0459	857.3 ± 0.5	1.4939 ± 0.0007	1331 ± 2
298.15 K, x2 = 0.0956	853.1 ± 0.5	1.49061 ± 0.0007	1326 ± 2
298.15 K, x2 = 0.193	844.8 ± 0.5	1.48396 ± 0.0007	1315 ± 2
298.15 K, x2 = 0.2937	835.9 ± 0.5	1.47698 ± 0.00069	1304 ± 2
298.15 K, x2 = 0.3878	827.5 ± 0.5	1.46995 ± 0.00069	1294 ± 2
298.15 K, x2 = 0.4953	817.9 ± 0.5	1.46201 ± 0.00069	1283 ± 2
298.15 K, x2 = 0.598	808.6 ± 0.5	1.45441 ± 0.00068	1274 ± 2
298.15 K, x2 = 0.6944	799.7 ± 0.5	1.44675 ± 0.00068	1265 ± 2
298.15 K, x2 = 0.796	790.3 ± 0.5	1.43896 ± 0.00068	1258 ± 2
298.15 K, x2 = 0.8942	781.5 ± 0.5	1.43119 ± 0.00068	1252 ± 2
298.15 K, x2 = 0.9515	776.9 ± 0.5	1.42697 ± 0.00068	1250 ± 2
313.15 K, x2 = 0	848.8 ± 0.5	1.48923 ± 0.00063	1277 ± 2
313.15 K, x2 = 0.0488	844.8 ± 0.5	1.48628 ± 0.0007	1271 ± 2
313.15 K, x2 = 0.102	840.2 ± 0.5	1.48264 ± 0.0007	1265 ± 2
313.15 K, x2 = 0.2008	831.7 ± 0.5	1.47604 ± 0.0007	1253 ± 2
313.15 K, x2 = 0.3053	822.6 ± 0.5	1.4688 ± 0.00069	1241 ± 2
313.15 K, x2 = 0.416	812.4 ± 0.5	1.46071 ± 0.00069	1229 ± 2
313.15 K, x2 = 0.5105	803.5 ± 0.5	1.4534 ± 0.00068	1219 ± 2
313.15 K, x2 = 0.6084	794.3 ± 0.5	1.44576 ± 0.00068	1209 ± 2
313.15 K, x2 = 0.7068	785.2 ± 0.5	1.43825 ± 0.00068	1200 ± 2
313.15 K, x2 = 0.8092	775.9 ± 0.5	1.43012 ± 0.00068	1191 ± 2
313.15 K, x2 = 0.911	766.9 ± 0.5	1.4222 ± 0.00068	1185 ± 2
313.15 K, x2 = 0.9612	762.7 ± 0.5	1.41833 ± 0.00068	1183 ± 2
